test system: HEK293 cells; assay: Preliminary screening as mRNA vectors, EGFP mRNA transfection of HEK293 cells; assay type: cell-based; settings: EGFP mRNA 50 ng per well, 96-well plates; percentage of GFP fluorescent cells relative to total number of cells (Hoechst)
Outline: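 Screening format: EGFP mRNA transfection (50 ng/well) into HEK293 in 10% FBS-supplemented DMEM. Percent green fluorescent cells, normalised to Hoechst nuclear count, gave the value; Lipofectamine2000 was the reference transfectant.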

Compound	Absolute mRNA transfection efficiency in HEK293 cells
CCCCCCCCCCCCCNc1nc(NCCN2CCCC2)nc(SCCCCCCCC)n1 [Compound D3S8N13]	35.8%
CCCCCCCCCCCCCCCNc1nc(NCCN2CCCC2)nc(SCCCCCCCC)n1 [Compound D3S8N15]	21.8%
CCCCCCCCCCCCCCCCNc1nc(NCCN2CCCC2)nc(SCCCCCCCC)n1 [Compound D3S8N16]	14.3%
CCCCCCCCCCCCCCCCCCNc1nc(NCCN2CCCC2)nc(SCCCCCCCC)n1 [Compound D3S8N18]	28.6%
CCCCCCCCSc1nc(NCCN2CCCC2)nc(SCCCCCCCC)n1 [Compound D3S8S8]	26.1%
CCCCCCCCCSc1nc(NCCN2CCCC2)nc(SCCCCCCCC)n1 [Compound D3S8S9]	11.6%
CCCCCCCCCCSc1nc(NCCN2CCCC2)nc(SCCCCCCCC)n1 [Compound D3S8S10]	12.0%
CCCCCCCCCCCSc1nc(NCCN2CCCC2)nc(SCCCCCCCC)n1 [Compound D3S8S11]	4.9%
CCCCCCCCCCCCSc1nc(NCCN2CCCC2)nc(SCCCCCCCC)n1 [Compound D3S8S12]	3.5%
CCCCCCCCCSc1nc(NCCCCCC)nc(NCCN2CCCC2)n1 [Compound D3S9N6]	0.2%
CCCCCCCCCSc1nc(NCCCCCCC)nc(NCCN2CCCC2)n1 [Compound D3S9N7]	1.4%
CCCCCCCCCSc1nc(NCCCCCCCC)nc(NCCN2CCCC2)n1 [Compound D3S9N8]	10.4%
CCCCCCCCCNc1nc(NCCN2CCCC2)nc(SCCCCCCCCC)n1 [Compound D3S9N9]	15.4%
CCCCCCCCCCCNc1nc(NCCN2CCCC2)nc(SCCCCCCCCC)n1 [Compound D3S9N11]	47.8%
CCCCCCCCCCCCNc1nc(NCCN2CCCC2)nc(SCCCCCCCCC)n1 [Compound D3S9N12]	49.6%
CCCCCCCCCCCCCNc1nc(NCCN2CCCC2)nc(SCCCCCCCCC)n1 [Compound D3S9N13]	58.2%
CCCCCCCCCCCCCCCNc1nc(NCCN2CCCC2)nc(SCCCCCCCCC)n1 [Compound D3S9N15]	67.9%
CCCCCCCCCCCCCCCCNc1nc(NCCN2CCCC2)nc(SCCCCCCCCC)n1 [Compound D3S9N16]	50.3%
CCCCCCCCCCCCCCCCCCNc1nc(NCCN2CCCC2)nc(SCCCCCCCCC)n1 [Compound D3S9N18]	26.7%
CCCCCCCCCCSc1nc(NCCCCCC)nc(NCCN2CCCC2)n1 [Compound D3S10N6]	0.4%
CCCCCCCCCCSc1nc(NCCCCCCC)nc(NCCN2CCCC2)n1 [Compound D3S10N7]	1.4%

Compound	Absolute mRNA transfection efficiency in HEK293 cells
CCCCCCCCCCSc1nc(NCCCCCCCC)nc(NCCN2CCCC2)n1 [Compound D3S10N8]	0.4%
CCCCCCCCCCSc1nc(NCCCCCCCCC)nc(NCCN2CCCC2)n1 [Compound D3S10N9]	2.7%
CCCCCCCCCCCNc1nc(NCCN2CCCC2)nc(SCCCCCCCCCC)n1 [Compound D3S10N11]	17.1%
CCCCCCCCCCCCNc1nc(NCCN2CCCC2)nc(SCCCCCCCCCC)n1 [Compound D3S10N12]	19.1%
CCCCCCCCCCCCCNc1nc(NCCN2CCCC2)nc(SCCCCCCCCCC)n1 [Compound D3S10N13]	35.0%
CCCCCCCCCCCCCCCNc1nc(NCCN2CCCC2)nc(SCCCCCCCCCC)n1 [Compound D3S10N15]	57.6%
CCCCCCCCCCCCCCCCNc1nc(NCCN2CCCC2)nc(SCCCCCCCCCC)n1 [Compound D3S10N16]	56.7%
CCCCCCCCCCCCCCCCCCNc1nc(NCCN2CCCC2)nc(SCCCCCCCCCC)n1 [Compound D3S10N18]	59.6%
CCCCCCCCCCCSc1nc(NCCCCCC)nc(NCCN2CCCC2)n1 [Compound D3S11N6]	18.1%
CCCCCCCCCCCSc1nc(NCCCCCCC)nc(NCCN2CCCC2)n1 [Compound D3S11N7]	8.0%
CCCCCCCCCCCSc1nc(NCCCCCCCC)nc(NCCN2CCCC2)n1 [Compound D3S11N8]	31.8%
CCCCCCCCCCCSc1nc(NCCCCCCCCC)nc(NCCN2CCCC2)n1 [Compound D3S11N9]	24.5%
CCCCCCCCCCCNc1nc(NCCN2CCCC2)nc(SCCCCCCCCCCC)n1 [Compound D3S11N11]	33.5%
CCCCCCCCCCCCNc1nc(NCCN2CCCC2)nc(SCCCCCCCCCCC)n1 [Compound D3S11N12]	40.5%
CCCCCCCCCCCCCNc1nc(NCCN2CCCC2)nc(SCCCCCCCCCCC)n1 [Compound D3S11N13]	25.9%
CCCCCCCCCCCCCCCNc1nc(NCCN2CCCC2)nc(SCCCCCCCCCCC)n1 [Compound D3S11N15]	31.3%
CCCCCCCCCCCCCCCCNc1nc(NCCN2CCCC2)nc(SCCCCCCCCCCC)n1 [Compound D3S11N16]	15.7%
CCCCCCCCCCCCCCCCCCNc1nc(NCCN2CCCC2)nc(SCCCCCCCCCCC)n1 [Compound D3S11N18]	40.6%
CCCCCCCCCCCCSc1nc(NCCCCCC)nc(NCCN2CCCC2)n1 [Compound D3S12N6]	0.0%
CCCCCCCCCCCCSc1nc(NCCCCCCC)nc(NCCN2CCCC2)n1 [Compound D3S12N7]	9.2%
CCCCCCCCCCCCSc1nc(NCCCCCCCC)nc(NCCN2CCCC2)n1 [Compound D3S12N8]	12.3%

Compound	Absolute mRNA transfection efficiency in HEK293 cells
CCCCCCCCCCCCSc1nc(NCCCCCCCCC)nc(NCCN2CCCC2)n1 [Compound D3S12N9]	39.9%
CCCCCCCCCCCCSc1nc(NCCCCCCCCCCC)nc(NCCN2CCCC2)n1 [Compound D3S12N11]	21.2%
CCCCCCCCCCCCNc1nc(NCCN2CCCC2)nc(SCCCCCCCCCCCC)n1 [Compound D3S12N12]	10.8%
CCCCCCCCCCCCCNc1nc(NCCN2CCCC2)nc(SCCCCCCCCCCCC)n1 [Compound D3S12N13]	0.3%
CCCCCCCCCCCCCCCNc1nc(NCCN2CCCC2)nc(SCCCCCCCCCCCC)n1 [Compound D3S12N15]	1.5%
CCCCCCCCCCCCCCCCNc1nc(NCCN2CCCC2)nc(SCCCCCCCCCCCC)n1 [Compound D3S12N16]	1.9%
CCCCCCCCCCCCCCCCCCNc1nc(NCCN2CCCC2)nc(SCCCCCCCCCCCC)n1 [Compound D3S12N18]	3.5%
CCCCCCCCCCCCCCSc1nc(NCCCCCC)nc(NCCN2CCCC2)n1 [Compound D3S14N6]	66.7%
CCCCCCCCCCCCCCSc1nc(NCCCCCCC)nc(NCCN2CCCC2)n1 [Compound D3S14N7]	64.2%
CCCCCCCCCCCCCCSc1nc(NCCCCCCCC)nc(NCCN2CCCC2)n1 [Compound D3S14N8]	55.2%
CCCCCCCCCCCCCCSc1nc(NCCCCCCCCC)nc(NCCN2CCCC2)n1 [Compound D3S14N9]	51.6%
CCCCCCCCCCCCCCSc1nc(NCCCCCCCCCCC)nc(NCCN2CCCC2)n1 [Compound D3S14N11]	30.9%
CCCCCCCCCCCCCCSc1nc(NCCCCCCCCCCCC)nc(NCCN2CCCC2)n1 [Compound D3S14N12]	13.5%
CCCCCCCCCCCCCCSc1nc(NCCCCCCCCCCCCC)nc(NCCN2CCCC2)n1 [Compound D3S14N13]	25.9%
CCCCCCCCCCCCCCCNc1nc(NCCN2CCCC2)nc(SCCCCCCCCCCCCCC)n1 [Compound D3S14N15]	3.6%
CCCCCCCCCCCCCCCCNc1nc(NCCN2CCCC2)nc(SCCCCCCCCCCCCCC)n1 [Compound D3S14N16]	1.2%
CCCCCCCCCCCCCCCCCCNc1nc(NCCN2CCCC2)nc(SCCCCCCCCCCCCCC)n1 [Compound D3S14N18]	1.5%
CCCCCCCCCCCCCCCSc1nc(NCCCCCC)nc(NCCN2CCCC2)n1 [Compound D3S15N6]	33.2%
CCCCCCCCCCCCCCCSc1nc(NCCCCCCC)nc(NCCN2CCCC2)n1 [Compound D3S15N7]	80.8%
CCCCCCCCCCCCCCCSc1nc(NCCCCCCCC)nc(NCCN2CCCC2)n1 [Compound D3S15N8]	17.0%
